Measurements reported in patent publication KR20170021349A, “다양한 질병의 치료를 위한 jnk 신호 전달 경로의 세포 투과성 펩타이드 억제자의 새로운 용도” (자이겐 인플라메이션 리미티드, priority 2014, dated 2017).
No end group written: not given here.

Assays:
[1] = test system: Sprague-Dawley rats; assay: STZ diabetic nephropathy model, chronic administration; format: in vivo, rat; settings: 25 mg/kg po daily
[2] = test system: gerbil; settings: Carboni et al. 2004; cited from earlier work
[3] = test system: primary embryonic cultures, PC12 cells, mice; settings: at doses inhibiting JNK activation; cited from earlier work
[4] = test system: TC-3 cells; assay: Cellular import of fluorescein-labelled TAT and TAT-IB1(s) peptides; format: cell-based; settings: for time to enter cells: 1 μM labelled peptide
[5] = test system: C57BL/6N mice; settings: Wang et al. 2004; cited from earlier work
[6] = test system: TC-3 cells; assay: IL-1-induced pancreatic beta-cell apoptosis; format: cell-based; settings: 1 μM single addition
[7] = test system: AP-1 DNA binding complex in HeLa nuclear extracts; assay: Gel retardation assay, AP-1 DNA binding complex after TNF-alpha; format: cell-based; settings: added 30 min before TNF-alpha 5 ng/ml
[8] = test system: JNK; settings: Dickens et al. 1997; cited from earlier work
[9] = Phase II trial, post-surgery intraocular inflammation, vs dexamethasone eye drops; format: in vivo, human
[10] = test system: Sprague-Dawley albino rats; assay: Light-induced photoreceptor damage (AMD model), ERG and ONL thickness; format: in vivo, rat; settings: for a-wave recovery (% of baseline) / b-wave recovery (% of baseline): 50 mg/kg i.p. x5

## CCCCc1nc(Cl)c(CO)n1Cc1ccc(-c2ccccc2-c2nn[nH]n2)cc1 [로사르탄, 로사르탄 칼륨, reference compound]
[1]
  body weight vs vehicle-treated STZ rats: 현저하게 낮았다

## N#CC(c1ccnc(NCCc2cccnc2)n1)c1nc2ccccc2s1 (stereo not shown) [AS601245]
[2]
  protection against delayed loss of hippocampal CA1 neurons: 현저한 보호를 제공한다

## CCSCc1ccc2c(c1)c1c3c(c4c5cc(CSCC)ccc5n5c4c1n2[C@H]1C[C@](O)(C(=O)OC)[C@]5(C)O1)CNC3=O [CEP-1347]
[3]
  neuronal survival: 신경 생존을 촉진한다

## NH2-GRKKRRQRRR-COOH (H-GRKKRRQRRR-OH) [L-TAT]
[4]
  time to enter cells: < 5 분

## Oc1c2ccccc2c2c3c(cccc13)N=N2 [SP600125]
[5]
  level of c-Jun phosphorylation: c-Jun 인산화의 수준을 감소

## NH2-RRRQRRKKRG-COOH (H-RRRQRRKKRG-OH; also: D-amino acids (positions not given here)) [D-TAT]
[4]
  stability inside cells: 극도로 안정하다
  time to enter cells: < 5 분

## NH2-GRKKRRQRRRPPRPKRPTTLNLFPQVPRSQD-COOH (H-GRKKRRQRRRPPRPKRPTTLNLFPQVPRSQD-OH) [L-TAT-IB1(s)]
[4]
  time to enter cells: < 5 분
[6]; 15 days IL-1
  long-term protection against IL-1-induced cell death: 그렇지 않았다
[7]
  formation of AP-1 DNA binding complex: 감소시켰다

## PGTGCGDTYRPKRPTTLNLFPQVPRSQDT [IB1-long]
[8]
  fold more efficient than c-Jun or ATF2 in binding JNK: ~100 배

## IPSPSVEEPHKHRPTTLRLTTLGAQDS [IB2-long]
[8]
  fold more efficient than c-Jun or ATF2 in binding JNK: ~100 배

## C[C@@H]1C[C@H]2[C@@H]3CCC4=CC(=O)C=C[C@]4(C)[C@@]3(F)[C@@H](O)C[C@]2(C)[C@@]1(O)C(=O)CO [덱사메타손, reference compound]
[9]; eye drops
  AEs leading to interruption of study treatment, events (%): 3 (5.5%)
  mild AEs, number of events (%): 42 (76.4%)
  moderate AEs, number of events (%): 9 (16.4%)
  patients with an AE within 24 h of administration: 30%
  patients with intraocular pressure increased: 14%
  severe AEs, number of events (%): 4 (7.3%)
[9]; eye drops 1 mg/ml 4x/day 21 d
  patients with rescue medication introduced: 4.0%
[9]; eye drops (16 patients)
  SOC eye disorders, patients: 32%
[9]; eye drops (N=50)
  premature withdrawal of study eye drops, patients (%): 3 (6.0%)
[9]; eye drops, 29/50
  patients with an adverse event: 58%

## TDQSRPVQPFLNLTTPRKPRYTDPPRRRQRRKKRG (also: D-amino acids (positions not given here)) [D-TAT-IB1]
[6]; 2 days IL-1, similar extent as L-TAT-IB
  IL-1-induced apoptosis: 감소시켰다

## CC(C)(C)/[N+]([O-])=C/c1ccccc1 [PBN, 페닐-N-tert-부틸니트론, reference compound]
[10]; day 9
  a-wave recovery (% of baseline): 70.4%
  b-wave recovery (% of baseline): 100%
[10]; day 16
  a-wave recovery (% of baseline): 79.6%
  b-wave recovery (% of baseline): 103.6%
[10]; day 23
  a-wave recovery (% of baseline): 76.2%
  b-wave recovery (% of baseline): 102.4%
[10]; ip 50 mg/kg
  ONL thickness loss (% vs non-induced control eyes): 16%
[10]; ip 50 mg/kg, day 23, p<0.05 vs vehicle
  ONL thickness: 34.05 ± 4.00 μm
